Source: ChEMBL document CHEMBL1799992, “Substituent effect on the preferred DNA binding mode and affinity of a homologous series of naphthalene diimides” (Bioorg Med Chem Lett, 2011)

Legend:
Nucleic Acid [1] = assay: Displacement of ethidium bromide from calf thymus DNA assessed as fluorescence intensity per microL of compound at 7 x 10^-5 M after 3 mins; type: nucleic-acid assay; details: Bos taurus
[2] = molecular target: T1, DNA topoisomerase 1 (Homo sapiens) (UniProt P11387); assay: Inhibition of human topoisomerase 1 assessed as minimum concentration required for complete re-supercoiling of pUC19 DNA after 1 hr using ethidium bromide staining by agarose gel electrophoresis
T1 sequence (whole entry): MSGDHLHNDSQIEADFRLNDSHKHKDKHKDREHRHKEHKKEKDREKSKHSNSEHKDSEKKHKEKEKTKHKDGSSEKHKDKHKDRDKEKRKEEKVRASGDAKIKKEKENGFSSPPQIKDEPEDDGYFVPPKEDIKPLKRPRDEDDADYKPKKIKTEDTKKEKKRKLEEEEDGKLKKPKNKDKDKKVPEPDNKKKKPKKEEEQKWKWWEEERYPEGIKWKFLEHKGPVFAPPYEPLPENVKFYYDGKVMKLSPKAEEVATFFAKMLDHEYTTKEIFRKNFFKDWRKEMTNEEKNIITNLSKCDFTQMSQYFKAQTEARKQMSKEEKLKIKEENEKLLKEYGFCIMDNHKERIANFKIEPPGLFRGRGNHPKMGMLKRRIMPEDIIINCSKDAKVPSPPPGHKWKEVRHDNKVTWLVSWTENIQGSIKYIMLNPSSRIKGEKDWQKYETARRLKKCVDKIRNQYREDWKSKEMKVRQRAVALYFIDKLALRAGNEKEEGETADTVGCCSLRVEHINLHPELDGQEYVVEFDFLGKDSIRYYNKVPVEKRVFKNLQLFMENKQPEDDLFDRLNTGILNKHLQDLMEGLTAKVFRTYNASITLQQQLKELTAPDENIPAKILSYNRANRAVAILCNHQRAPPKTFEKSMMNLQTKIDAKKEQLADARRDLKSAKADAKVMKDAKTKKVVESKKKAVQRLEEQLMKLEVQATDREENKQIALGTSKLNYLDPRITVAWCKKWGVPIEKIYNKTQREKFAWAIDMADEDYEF

Nucleic Acid [3] = assay: Binding affinity to 20 mer GC-rich DNA in MES00 buffer at pH 6.3 by isothermal titration calorimetry; type: nucleic-acid assay
Nucleic Acid [4] = assay: Binding affinity to 20 mer AT-rich DNA in MES00 buffer at pH 6.3 by isothermal titration calorimetry; type: nucleic-acid assay
Nucleic Acid [5] = assay: Binding affinity to calf thymus DNA assessed in MES00 buffer at pH 6.3 by isothermal titration calorimetry; type: nucleic-acid assay; details: Bos taurus
Nucleic Acid [6] = assay: Binding affinity to calf thymus DNA assessed as high affinity binding constant in MES00 buffer at pH 6.3 by isothermal titration calorimetry; type: nucleic-acid assay; details: Bos taurus
Nucleic Acid [7] = assay: Binding affinity to calf thymus DNA assessed as low affinity binding constant in MES00 buffer at pH 6.3 by isothermal titration calorimetry; type: nucleic-acid assay; details: Bos taurus
Nucleic Acid [8] = assay: Selectivity ratio of binding constant K for AT-rich DNA to binding constant K for GC-rich DNA; type: nucleic-acid assay

Work on C[N+](C)(C)CN1C(=O)c2ccc3c4c(ccc(c24)C1=O)C(=O)N(C[N+](C)(C)C)C3=O yielded a Flu intensity (Nucleic Acid [1]) of 400, an Activity [2] of 3.5 µM and a K (Nucleic Acid [3]) of 1.17 ×10⁶ /M. The K (Nucleic Acid [4]) was 1.11 ×10⁶ /M and the K (Nucleic Acid [5]) was 15 ×10⁶ /M.

Work on CCC[N+](C)(CCC)CN1C(=O)c2ccc3c4c(ccc(c24)C1=O)C(=O)N(C[N+](C)(CCC)CCC)C3=O yielded an Activity [2] of 6.7 µM, a K (Nucleic Acid [3]) of 0.24 ×10⁶ /M and a K (Nucleic Acid [4]) of 0.73 ×10⁶ /M. For the same compound, the K (Nucleic Acid [6]) was 43 ×10⁶ /M, the K (Nucleic Acid [7]) was 3 ×10⁶ /M and the Ratio (Nucleic Acid [8]) was 3.

CC[N+](C)(CC)CN1C(=O)c2ccc3c4c(ccc(c24)C1=O)C(=O)N(C[N+](C)(CC)CC)C3=O showed an Activity [2] of 5.5 µM, a K (Nucleic Acid [3]) of 0.37 ×10⁶ /M and a K (Nucleic Acid [4]) of 0.85 ×10⁶ /M. The K (Nucleic Acid [6]) was 31 ×10⁶ /M, the K (Nucleic Acid [7]) was 3.6 ×10⁶ /M and the Ratio (Nucleic Acid [8]) was 2.3.

CCCC[N+](C)(CCCC)CN1C(=O)c2ccc3c4c(ccc(c24)C1=O)C(=O)N(C[N+](C)(CCCC)CCCC)C3=O was tested, and the Flu intensity (Nucleic Acid [1]) was 358, the Activity [2] was over 6.7 µM and the K (Nucleic Acid [3]) was 0.38 ×10⁶ /M. The K (Nucleic Acid [4]) was 1.38 ×10⁶ /M, the K (Nucleic Acid [6]) was 78 ×10⁶ /M and the K (Nucleic Acid [7]) was 3.9 ×10⁶ /M. For the same compound, the Ratio (Nucleic Acid [8]) was 3.6.
